# Measured values from ChEMBL document CHEMBL3244316, “Pharmacology of some metabolites of triazolam, alprazolam, and diazepam prepared by a simple, one-step oxidation of benzodiazepines” (1978).
# Legend:
# Type in all cases: functional
# Conditions in all cases: CF-1, ip
# [1] = system: Mus musculus; test: Effect on motor activity in ip dosed albino CF-1 mouse by pedestal test
# [2] = system: Mus musculus; test: Anticonvulsant activity in ip dosed albino CF-1 mouse assessed as inhibition of pentylenetetrazole-induced seizures
# [3] = system: Mus musculus; test: Anxiolytic activity in ip dosed albino CF-1 mouse under hypoxic stress
# [4] = system: Mus musculus; test: Effect on motor activity in ip dosed albino CF-1 mouse by dish test
# [5] = system: Mus musculus; test: Anticonvulsant activity in ip dosed albino CF-1 mouse assessed as inhibition of strychnine-induced seizures
# [6] = system: Mus musculus; test: Antidepressant activity in ip dosed albino CF-1 mouse assessed as inhibition of ethanol-induced response
# [7] = system: Mus musculus; test: Anticonvulsant activity in ip dosed albino CF-1 mouse assessed as inhibition of thiosemicarbazide-induced seizures
# [8] = system: Mus musculus; test: Effect on motor activity in ip dosed albino CF-1 mouse by traction test
# [9] = system: Mus musculus; test: Anticonvulsant activity in ip dosed albino CF-1 mouse assessed as inhibition of nicotine-induced seizures
# [10] = system: Mus musculus; test: Anticonvulsant activity in ip dosed albino CF-1 mouse assessed as inhibition of maximal electric shock-induced seizures
# [11] = system: Mus musculus; test: Effect on motor activity in ip dosed albino CF-1 mouse by chimney test
SMILES,ED50 [1],ED50 [2],ED50 [3],ED50 [4],ED50 [5],ED50 [6],ED50 [7],ED50 [8],ED50 [9],ED50 [10],ED50 [11]
O=C1CN=C(c2ccccc2)c2cc(Cl)ccc2N1 [NORDAZEPAM],0.9 mg/kg,1.6 mg/kg,0.7 mg/kg,0.5 mg/kg,20 mg/kg,1.8 mg/kg,1.8 mg/kg,7 mg/kg,0.3 mg/kg,> 100 mg/kg,0.7 mg/kg
CN1C(=O)CN=C(c2ccccc2)c2cc(Cl)ccc21 [DIAZEPAM],0.7 mg/kg,0.8 mg/kg,0.2 mg/kg,0.25 mg/kg,4 mg/kg,1 mg/kg,0.4 mg/kg,4 mg/kg,0.1 mg/kg,25 mg/kg,1.2 mg/kg
OCc1nnc2n1-c1ccc(Cl)cc1C(c1ccccc1)=NC2O (stereo not given),> 80 mg/kg,40 mg/kg,> 50 mg/kg,56 mg/kg,> 80 mg/kg,> 80 mg/kg,8.9 mg/kg,> 100 mg/kg,6.2 mg/kg,> 100 mg/kg,> 80 mg/kg
Cc1nnc2n1-c1ccc(Cl)cc1C(c1ccccc1Cl)=NC2O (stereo not given),11 mg/kg,14 mg/kg,> 100 mg/kg,8 mg/kg,> 80 mg/kg,> 80 mg/kg,11.2 mg/kg,> 100 mg/kg,10 mg/kg,> 100 mg/kg,45 mg/kg
OCc1nnc2n1-c1ccc(Cl)cc1C(c1ccccc1Cl)=NC2O (stereo not given),44 mg/kg,32 mg/kg,30 mg/kg,5 mg/kg,> 80 mg/kg,50 mg/kg,0.39 mg/kg,> 100 mg/kg,1 mg/kg,> 100 mg/kg,2.2 mg/kg
CN(C)Cc1nnc2n1-c1ccc(Cl)cc1C(c1ccccc1)=NC2 [ADINAZOLAM],2.8 mg/kg,0.8 mg/kg,1.9 mg/kg,1.5 mg/kg,> 200 mg/kg,2.2 mg/kg,0.15 mg/kg,5.6 mg/kg,0.2 mg/kg,100 mg/kg,3.6 mg/kg
Cc1nnc2n1-c1ccc(Cl)cc1C(c1ccccc1Cl)=NC2 [TRIAZOLAM],0.03 mg/kg,0.009 mg/kg,0.035 mg/kg,0.03 mg/kg,0.22 mg/kg,0.7 mg/kg,0.02 mg/kg,0.3 mg/kg,0.004 mg/kg,30 mg/kg,0.08 mg/kg
Cc1nnc2n1-c1ccc(Cl)cc1C(c1ccccc1)=NC2O (stereo not given) [4-HYDROXY-ALPRAZOLAM],20 mg/kg,0.7 mg/kg,6.2 mg/kg,6.3 mg/kg,25 mg/kg,10 mg/kg,5 mg/kg,23 mg/kg,4 mg/kg,> 50 mg/kg,6.3 mg/kg
CN1C(=O)C(O)N=C(c2ccccc2)c2cc(Cl)ccc21 (stereo not given) [TEMAZEPAM],0.7 mg/kg,0.3 mg/kg,0.2 mg/kg,0.36 mg/kg,2.8 mg/kg,0.32 mg/kg,0.3 mg/kg,4 mg/kg,0.063 mg/kg,10 mg/kg,0.45 mg/kg
OCc1nnc2n1-c1ccc(Cl)cc1C(c1ccccc1)=NC2,–,0.22 mg/kg,0.02 mg/kg,2 mg/kg,9.9 mg/kg,1.8 mg/kg,0.08 mg/kg,8 mg/kg,0.08 mg/kg,50 mg/kg,0.63 mg/kg
O=C1Nc2ccc(Cl)cc2C(c2ccccc2)=NC1O (stereo not given) [OXAZEPAM],2 mg/kg,0.7 mg/kg,12.5 mg/kg,1.1 mg/kg,9 mg/kg,1.8 mg/kg,0.9 mg/kg,13 mg/kg,0.14 mg/kg,79 mg/kg,1.8 mg/kg
OC1N=C(c2ccccc2)c2cc(Cl)ccc2-n2ccnc21 (stereo not given),7 mg/kg,6.3 mg/kg,60 mg/kg,6 mg/kg,> 80 mg/kg,7.9 mg/kg,6.3 mg/kg,32 mg/kg,4 mg/kg,63 mg/kg,> 25 mg/kg
OCc1nnc2n1-c1ccc(Cl)cc1C(c1ccccc1Cl)=NC2,0.17 mg/kg,0.018 mg/kg,0.5 mg/kg,0.03 mg/kg,0.5 mg/kg,0.4 mg/kg,0.014 mg/kg,0.6 mg/kg,0.01 mg/kg,89 mg/kg,0.14 mg/kg
Cc1nnc2n1-c1ccc(Cl)cc1C(c1ccccc1)=NC2 [ALPRAZOLAM],0.23 mg/kg,0.13 mg/kg,0.02 mg/kg,0.15 mg/kg,0.3 mg/kg,0.18 mg/kg,0.16 mg/kg,0.6 mg/kg,0.02 mg/kg,25 mg/kg,0.09 mg/kg
CN(C)Cc1nnc2n1-c1ccc(Cl)cc1C(c1ccccc1)=NC2O (stereo not given),22 mg/kg,4 mg/kg,25 mg/kg,5 mg/kg,> 40 mg/kg,> 20 mg/kg,0.88 mg/kg,22 mg/kg,2.2 mg/kg,> 100 mg/kg,4 mg/kg
Clc1ccc2c(c1)C(c1ccccc1)=NCc1nccn1-2,4 mg/kg,2.2 mg/kg,25 mg/kg,5 mg/kg,7 mg/kg,3.6 mg/kg,1.6 mg/kg,16 mg/kg,1 mg/kg,32 mg/kg,3.6 mg/kg
